{"source": "PubChem BioAssay AID1259407", "about": "(Chemical Carcinogenesis Research Information System (CCRIS), 2018)", "system": "CCRIS mutagenicity, Ames/micronucleus/aberration tests", "assay": "CCRIS mutagenicity studies", "key": {"[1]": {"conditions": "Test System: AMES SALMONELLA TYPHIMURIUM, Strain/Indicator: TA98, Metabolic Activation: NONE, Method: PREINCUBATION"}, "[2]": {"conditions": "Test System: AMES SALMONELLA TYPHIMURIUM, Strain/Indicator: TA100, Metabolic Activation: NONE, Method: PREINCUBATION"}, "[3]": {"conditions": "Test System: AMES SALMONELLA TYPHIMURIUM, Strain/Indicator: TA102, Metabolic Activation: NONE, Method: PREINCUBATION"}, "[4]": {"conditions": "Test System: AMES SALMONELLA TYPHIMURIUM, Strain/Indicator: TA1535, Metabolic Activation: NONE, Method: PREINCUBATION"}, "[5]": {"conditions": "Test System: AMES SALMONELLA TYPHIMURIUM, Strain/Indicator: TA1537, Metabolic Activation: NONE, Method: PREINCUBATION"}}, "note": "Calls of active or inactive are those of the source. How the calls were made is not given here."}
{"compound": "O=C=NCCCCCCN=C=O", "values": [{"measurement": "mutagenic call", "setting": "Test System: AMES SALMONELLA TYPHIMURIUM, Strain/Indicator: TA98, Metabolic Activation: NONE, Method: DESICCATOR", "value": "inactive; negative"}, {"measurement": "mutagenic call", "setting": "[1]", "value": "inactive; negative"}, {"measurement": "mutagenic call", "setting": "Test System: AMES SALMONELLA TYPHIMURIUM, Strain/Indicator: TA98, Metabolic Activation: RAT LIVER S-9, AROCLOR 1254 (10%), Method: DESICCATOR", "value": "inactive; negative"}, {"measurement": "mutagenic call", "setting": "Test System: AMES SALMONELLA TYPHIMURIUM, Strain/Indicator: TA98, Metabolic Activation: RAT, LIVER, S-9, SODIUM PHENOBARBITAL AND 5,6-BENZOFLAVONE, Method: PREINCUBATION", "value": "inactive; negative"}, {"measurement": "mutagenic call", "setting": "Test System: AMES SALMONELLA TYPHIMURIUM, Strain/Indicator: TA100, Metabolic Activation: NONE, Method: DESICCATOR", "value": "inactive; negative"}, {"measurement": "mutagenic call", "setting": "[2]", "value": "inactive; negative"}, {"measurement": "mutagenic call", "setting": "Test System: AMES SALMONELLA TYPHIMURIUM, Strain/Indicator: TA100, Metabolic Activation: RAT LIVER S-9, AROCLOR 1254 (10%), Method: DESICCATOR", "value": "inactive; negative"}, {"measurement": "mutagenic call", "setting": "Test System: AMES SALMONELLA TYPHIMURIUM, Strain/Indicator: TA100, Metabolic Activation: RAT, LIVER, S-9, SODIUM PHENOBARBITAL AND 5,6-BENZOFLAVONE, Method: PREINCUBATION", "value": "inactive; negative"}, {"measurement": "mutagenic call", "setting": "[3]", "value": "inactive; negative"}, {"measurement": "mutagenic call", "setting": "Test System: AMES SALMONELLA TYPHIMURIUM, Strain/Indicator: TA102, Metabolic Activation: RAT, LIVER, S-9, SODIUM PHENOBARBITAL AND 5,6-BENZOFLAVONE, Method: PREINCUBATION", "value": "inactive; negative"}, {"measurement": "mutagenic call", "setting": "Test System: AMES SALMONELLA TYPHIMURIUM, Strain/Indicator: TA104, Metabolic Activation: NONE, Method: PREINCUBATION", "value": "inactive; negative"}, {"measurement": "mutagenic call", "setting": "Test System: AMES SALMONELLA TYPHIMURIUM, Strain/Indicator: TA104, Metabolic Activation: RAT, LIVER, S-9, SODIUM PHENOBARBITAL AND 5,6-BENZOFLAVONE, Method: PREINCUBATION", "value": "inactive; negative"}, {"measurement": "mutagenic call", "setting": "Test System: AMES SALMONELLA TYPHIMURIUM, Strain/Indicator: TA1535, Metabolic Activation: NONE, Method: DESICCATOR", "value": "inactive; negative"}, {"measurement": "mutagenic call", "setting": "[4]", "value": "inactive; negative"}, {"measurement": "mutagenic call", "setting": "Test System: AMES SALMONELLA TYPHIMURIUM, Strain/Indicator: TA1535, Metabolic Activation: RAT LIVER S-9, AROCLOR 1254 (10%), Method: DESICCATOR", "value": "inactive; negative"}, {"measurement": "mutagenic call", "setting": "Test System: AMES SALMONELLA TYPHIMURIUM, Strain/Indicator: TA1535, Metabolic Activation: RAT, LIVER, S-9, SODIUM PHENOBARBITAL AND 5,6-BENZOFLAVONE, Method: PREINCUBATION", "value": "inactive; negative"}, {"measurement": "mutagenic call", "setting": "Test System: AMES SALMONELLA TYPHIMURIUM, Strain/Indicator: TA1537, Metabolic Activation: NONE, Method: DESICCATOR", "value": "inactive; negative"}, {"measurement": "mutagenic call", "setting": "[5]", "value": "inactive; negative"}, {"measurement": "mutagenic call", "setting": "Test System: AMES SALMONELLA TYPHIMURIUM, Strain/Indicator: TA1537, Metabolic Activation: RAT LIVER S-9, AROCLOR 1254 (10%), Method: DESICCATOR", "value": "inactive; negative"}, {"measurement": "mutagenic call", "setting": "Test System: AMES SALMONELLA TYPHIMURIUM, Strain/Indicator: TA1537, Metabolic Activation: RAT, LIVER, S-9, SODIUM PHENOBARBITAL AND 5,6-BENZOFLAVONE, Method: PREINCUBATION", "value": "inactive; negative"}, {"measurement": "mutagenic call", "setting": "Test System: CHINESE HAMSTER OVARY CELLS, Strain/Indicator: CHO/HGPRT/6-THIOGUANINE, Metabolic Activation: NONE, Method: DESICCATOR", "value": "inactive; negative"}, {"measurement": "mutagenic call", "setting": "Test System: CHINESE HAMSTER OVARY CELLS, Strain/Indicator: CHO/HGPRT/6-THIOGUANINE, Metabolic Activation: RAT LIVER S-9, AROCLOR 1254 (10%), Method: DESICCATOR", "value": "inactive; negative"}, {"measurement": "mutagenic call", "setting": "Test System: E. COLI, Strain/Indicator: WP2UVRA/PKM101, Metabolic Activation: NONE, Method: PREINCUBATION", "value": "inactive; negative"}, {"measurement": "mutagenic call", "setting": "Test System: E. COLI, Strain/Indicator: WP2UVRA/PKM101, Metabolic Activation: RAT, LIVER, S-9, SODIUM PHENOBARBITAL AND 5,6-BENZOFLAVONE, Method: PREINCUBATION", "value": "inactive; negative"}, {"measurement": "mutagenic call", "setting": "Test System: E. COLI, Strain/Indicator: WP2UVRA, Metabolic Activation: NONE, Method: PREINCUBATION", "value": "inactive; negative"}, {"measurement": "mutagenic call", "setting": "Test System: E. COLI, Strain/Indicator: WP2UVRA, Metabolic Activation: RAT, LIVER, S-9, SODIUM PHENOBARBITAL AND 5,6-BENZOFLAVONE, Method: PREINCUBATION", "value": "inactive; negative"}]}
{"compound": "CC(C)CNC(=O)C=Cc1ccc([N+](=O)[O-])o1", "values": [{"measurement": "mutagenic call", "setting": "[1]", "value": "active; positive"}]}
{"compound": "CC(C)=O", "values": [{"measurement": "mutagenic call", "setting": "End Point: IN VITRO CHROMOSOMAL ABERRATIONS, Test System: CHO-LB CELLS, Metabolic Activation: NONE", "value": "inactive; negative"}, {"measurement": "mutagenic call", "setting": "End Point: IN VITRO CHROMOSOMAL ABERRATIONS, Test System: CHO-LB CELLS, Metabolic Activation: RAT, LIVER, S-9, AROCLOR 1254", "value": "inactive; negative"}, {"measurement": "mutagenic call", "setting": "Test System: AMES SALMONELLA TYPHIMURIUM, Strain/Indicator: TA97, Metabolic Activation: HAMSTER, LIVER, S-9, AROCLOR 1254 (10 OR 30%), Method: PREINCUBATION", "value": "inactive; negative"}, {"measurement": "mutagenic call", "setting": "Test System: AMES SALMONELLA TYPHIMURIUM, Strain/Indicator: TA97, Metabolic Activation: NONE, Method: PREINCUBATION", "value": "inactive; negative"}, {"measurement": "mutagenic call", "setting": "Test System: AMES SALMONELLA TYPHIMURIUM, Strain/Indicator: TA97, Metabolic Activation: RAT, LIVER, S-9, AROCLOR 1254 (10 OR 30%), Method: PREINCUBATION", "value": "inactive; negative"}, {"measurement": "mutagenic call", "setting": "Test System: AMES SALMONELLA TYPHIMURIUM, Strain/Indicator: TA97, Metabolic Activation: RAT, LIVER, S-9, AROCLOR 1254, Method: PREINCUBATION", "value": "inactive; negative"}, {"measurement": "mutagenic call", "setting": "Test System: AMES SALMONELLA TYPHIMURIUM, Strain/Indicator: TA98, Metabolic Activation: HAMSTER, LIVER, S-9, AROCLOR 1254 (10 OR 30%), Method: PREINCUBATION", "value": "inactive; negative"}, {"measurement": "mutagenic call", "setting": "[1]", "value": "inactive; negative"}, {"measurement": "mutagenic call", "setting": "Test System: AMES SALMONELLA TYPHIMURIUM, Strain/Indicator: TA98, Metabolic Activation: RAT, LIVER, S-9, AROCLOR 1254 (10 OR 30%), Method: PREINCUBATION", "value": "inactive; negative"}, {"measurement": "mutagenic call", "setting": "Test System: AMES SALMONELLA TYPHIMURIUM, Strain/Indicator: TA100, Metabolic Activation: HAMSTER, LIVER, S-9, AROCLOR 1254 (10 OR 30%), Method: PREINCUBATION", "value": "inactive; negative"}, {"measurement": "mutagenic call", "setting": "[2]", "value": "inactive; negative"}, {"measurement": "mutagenic call", "setting": "Test System: AMES SALMONELLA TYPHIMURIUM, Strain/Indicator: TA100, Metabolic Activation: RAT, LIVER, S-9, AROCLOR 1254 (10 OR 30%), Method: PREINCUBATION", "value": "inactive; negative"}, {"measurement": "mutagenic call", "setting": "[3]", "value": "inactive; negative"}, {"measurement": "mutagenic call", "setting": "Test System: AMES SALMONELLA TYPHIMURIUM, Strain/Indicator: TA102, Metabolic Activation: RAT, LIVER, S-9, AROCLOR 1254, Method: PREINCUBATION", "value": "inactive; negative"}, {"measurement": "mutagenic call", "setting": "Test System: AMES SALMONELLA TYPHIMURIUM, Strain/Indicator: TA1535, Metabolic Activation: HAMSTER, LIVER, S-9, AROCLOR 1254 (10 OR 30%), Method: PREINCUBATION", "value": "inactive; negative"}, {"measurement": "mutagenic call", "setting": "[4]", "value": "inactive; negative"}, {"measurement": "mutagenic call", "setting": "Test System: AMES SALMONELLA TYPHIMURIUM, Strain/Indicator: TA1535, Metabolic Activation: RAT, LIVER, S-9, AROCLOR 1254 (10 OR 30%), Method: PREINCUBATION", "value": "inactive; negative"}, {"measurement": "mutagenic call", "setting": "Test System: AMES SALMONELLA TYPHIMURIUM, Strain/Indicator: TA1537, Metabolic Activation: HAMSTER, LIVER, S-9, AROCLOR 1254 (30%), Method: PREINCUBATION", "value": "inactive; negative"}, {"measurement": "mutagenic call", "setting": "[5]", "value": "inactive; negative"}, {"measurement": "mutagenic call", "setting": "Test System: AMES SALMONELLA TYPHIMURIUM, Strain/Indicator: TA1537, Metabolic Activation: RAT, LIVER, S-9, AROCLOR 1254 (30%), Method: PREINCUBATION", "value": "inactive; negative"}]}
